Measured values as given in patent US20070015810A1, “5(R)-Substituted Pyrazoline Compounds, their Preparation and Use as Medicaments” (LABORATORIOS DEL DR. ESTEVE, S.A., priority 2005, published 2007).
Counter-ions that a name gives are not always drawn.

How the values were obtained:
CB1-receptor = CB1-receptor (UniProt P20272); test: In-vitro determination of affinity (binding) to the CB1-receptor, radioligand [3H]-CP55940; conditions: Pharmacological methods part I
From the text: 1. In-vitro determination of affinity to CB1CB2-Receptors
The in-vitro determination of the affinity of the inventive substituted pyrazoline compounds to CB1/CB2-Rezeptors is carded out as described in the publication of Ruth A. Ross, Heather C. Brockie et al., “Agonist-inverse agonist characterization at CB1 and CB2 cannabinoid receptors of L-759633, L759656 and AM630”, British Journal of Pharmacology, 126, 665-672, (1999), whereby the transfected human CB1 and CB2 receptors of Receptor Biology, Inc. are used. The radioligand used for both receptors is [^3H]-CP55940. The respective parts of the description is hereby incorporated by reference and forms part of the present disclosure. […]
Binding affinity to CB1 receptor was evaluated according to a modification of the method described by Govaerts et al., Eur J Pharmac Sci 23, 233-243 (2004). […]
Briefly, cerebellum from male wistar rats (250-300 g) were carefully dissected on ice and homogenates were prepared with Potter-Helveheim in a cold 50 mM Tris-HCl solution containing 5 mM MgCl2, 1 mM EDTA and 0.25 M sucrose, pH 7.4. […] Total protein concentration was determined using the Bio-Rad Lowry method based kit. […] Compounds were present at various concentrations and the non specific binding was determined in the presence of 10 μM HU-210. […]
Binding data were analyzed by non-linear regression with the software GraphPad Prism Version 3.03. […]

[1] = Effect of continued administration on body weight in rats; format: in vivo; conditions: 10 mg/kg i.p. once daily
Protocol: V. Determination of the Effect of Continued Administration of the Inventive Compounds on Body Weight in Rats
The weight of the animals was measured for 36 days, and the data grouped into 3 periods for analysis. Period 1, days 1-8 (period for adaptation of the animals to the environmental conditions: one week without treatment plus first day of treatment); Period 2, days 9-22 (treatment period: two weeks); Period 3, days 23-36 (escape treatment period: two weeks). The administration of the drugs started on day 8, immediately after the animal was weighted, and finished on day 21. The treatment period ranges between one day after first administration and one day after last administration. The drugs were administered i.p. once daily. For comparative purposes, absolute weights were transformed into relative percentages (each weight was divided by that of day 8 and multiplied by 100). […] All results are expressed as mean±S.E.M.
The dependence of body-weight (expressed as a percentage relative to day 8) on time (number of days after inclusion in the study) and treatment was assessed by a two-way (time, treatment) analysis of variance (ANOVA) with repeated measures on the time factor. […] The differences between pairs of curves (treatments) were analyzed using appropriate contrasts within the ANOVA test. […]

[2] = target: T1, recombinant human cannabinoid 1 receptor (CB1) (Homo sapiens, UniProt P21554); test: [35S]GTPγS binding assay, antagonism to CB1-receptor in CHO cell membranes; format: biochemical; conditions: compound 1 μM versus agonist WIN 55,212-2; 100% = difference between maximal WIN 55,212-2 effect alone and with Rimonabant (1 μM)
T1 construct: expressed in transfected cells; membrane preparation
Protocol: VI. In Vitro Determination of Antagonism to CB1-Receptor
Chinese hamster ovary (CHO) cells stably expressing recombinant human cannabinoid 1 receptor (CB1) were cultured in nutrient mixture Ham's F 12 supplemented with 10% heat-inactivated fetal bovine serum, 2 mM L-glutamine, 50 U/ml penicillin, 50 U/ml streptomycin and 0.5 mg/ml geneticin. In order to obtain cells, culture flasks were washed twice with phosphate buffered saline and scraped. Then, cells were collected by centrifugation (200×g, 10 min) and stored dry at −80° C. Cells were homogenized in ice-cold 20 mM HEPES, 10 mM EDTA (pH 7.5) and centrifuged at 40,000×g for 15 min at 4° C. The membrane pellet was resuspended in 20 mM HEPES, 0.1 mM EDTA (pH 7.5) and centrifuged for 15 min at 4° C. The final membrane pellet was resuspended in 20 mM HEPES, 0.1 mM EDTA (pH 7.5), and divided in aliquots and stored at −80° C. until use.
The reaction was performed in 96-well plates. […] Radioactivity was determined using a Wallac Microbeta Trilux. […]
The antagonism of the pyrazoline compounds of general formula I to the CB1-receptor was determined according to the method described in Pharmacological methods, part VI (table 2).

[3] = Chronic administration in animals made obese by a simplified cafeteria diet; format: in vivo, rats

T1 sequence (P21554 whole entry): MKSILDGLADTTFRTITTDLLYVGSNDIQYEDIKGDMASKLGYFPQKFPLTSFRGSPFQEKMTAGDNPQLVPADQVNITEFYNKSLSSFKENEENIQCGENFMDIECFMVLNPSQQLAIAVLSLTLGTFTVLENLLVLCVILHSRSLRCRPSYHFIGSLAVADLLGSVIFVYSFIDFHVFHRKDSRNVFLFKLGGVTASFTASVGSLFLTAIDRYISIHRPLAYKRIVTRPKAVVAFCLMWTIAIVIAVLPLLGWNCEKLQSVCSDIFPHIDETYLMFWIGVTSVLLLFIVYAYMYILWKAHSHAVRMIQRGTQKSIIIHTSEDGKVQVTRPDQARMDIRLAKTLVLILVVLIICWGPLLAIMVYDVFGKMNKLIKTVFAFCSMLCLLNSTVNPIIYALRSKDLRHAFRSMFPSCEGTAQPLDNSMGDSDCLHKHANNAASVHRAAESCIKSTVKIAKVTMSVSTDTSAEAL

Structure (SMILES) | IC50 (CB1-receptor) [nM] | effect on body weight ([1]; days 8-21, FIG. 1) | recovery of weight after treatment ([1]; escape period days 23-36, FIG. 1) | Antagonism [%] [2] [%] | body weight on chronic administration ([3]; animals made obese by cafeteria diet (high-fat diet, chocolate, ground peanuts)) | body weight after 28 days of drug treatment versus vehicle-treated controls ([3]; obese rats, 28 days of treatment)
O=C(NN1CCCCC1)C1=NN(c2ccc(Cl)cc2Cl)[C@@H](c2ccc(Cl)cc2)C1 [A, (R)-N-piperidinyl-5-(4chlorophenyl)-1-(2,4-dichlorophenyl)-4,5-dihydro-1H-pyrazole-3-carboxamide] | 16.1 | stronger action than the racemate | slower recovery of weight | 106 | significantly decreased body weight | lower than those of the vehicle-treated controls
O=C(NN1CCCCC1)C1=NN(c2ccc(Cl)cc2Cl)[C@@H](c2ccc(Cl)cc2)C1 [A-Hydrochloride] | 20 | – | – | 113 | – | –
